Our source for the viability, inhibition and IC50 values is ChEMBL document CHEMBL3421618, “2,6,9-Trisubstituted purines as CRK3 kinase inhibitors with antileishmanial activity in vitro” (Bioorg Med Chem Lett, 2015).

Series [1] in a line: Cytotoxicity against human BJ cells assessed as cell viability at 30 uM after 72 hrs by fluorescence assay relative to control.
The subject of a further series is Leishmania. Conditions: at 30 µM.
Series [2] is described as follows: Inhibition of Leishmania CRK3/CYC6 using histone H1/[gamma33-P]ATP as substrate after 30 mins.
Series [3] in a line: Leshmanicidal activity against promastigote stage of Leishmania turanica MRHO/MN/08/BZ18 after 72 hrs by alamar blue staining-based fluorescence assay. Type of series: functional. (Resazurin is reduced to fluorescent resorufin, in cell work by metabolically active cells.)
For the next series, the system named is Leishmania major. The series can be described thus: Leshmanicidal activity against promastigote stage of Leishmania major MHOM/IL/2003/LRC-L1025 […] after 72 hrs by alamar blue staining-based fluorescence assay. Type of series: functional, organism-based. Conditions: MHOM/IL/2003/LRC-L1025, 72 h.
The next series has as its system Leishmania donovani. Kind of series: Leshmanicidal activity against promastigote stage of Leishmania donovani MHOM/SD/1962/1S-c12d […] after 72 hrs by alamar blue staining-based fluorescence assay. Type of series: functional, organism-based.

With `CC(C)n1cnc2c(NCc3ccccc3)nc(NCCO)nc21`, in series [1] (BJ cells), the viability (commonly a read-out of living cells in per cent, often relative to untreated cells) at 72 h, 30 µM was determined as 74.2%. Further, the inhibition (usually how much of the control response was suppressed) with Leishmania came out at 66.6%.
The like results for `CC(C)n1cnc2c(NCc3ccccc3)nc(NCCN)nc21` were, in that order, 95.2% and 57.5%.
The like results for `CC(C)n1cnc2c(NCc3ccccc3)nc(NCCCCCC#N)nc21` were, in that order, 77.8% and 49%.
In the case of `CC[C@H](CO)Nc1nc(Nc2ccc(S(=O)(=O)NC(=N)N)cc2)c2ncn(C(C)C)c2n1`, the IC50 (in general, the concentration needed to halve the response being measured) was 0.115 µM in series [2] and over 50 µM in series [3]. Moreover, the viability at 72 h, 30 µM in series [1] (BJ cells) was 84.4%. In the series with Leishmania, the inhibition amounted to 0.3%.
Consider `CC[C@H](CO)Nc1nc(NCc2cccc(O)c2O)c2ncn(C(C)C)c2n1`, for which the IC50 was 0.314 µM in series [2] and over 50 µM in series [3]. The viability at 72 h, 30 µM in series [1] (BJ cells) turned out to be 80.1%. For the same compound, the inhibition with Leishmania worked out at 2.6%.
For `CC(C)n1cnc2c(NCc3ccccc3O)nc(N[C@H]3CC[C@H](N)CC3)nc21`, the viability at 72 h, 30 µM in series [1] (BJ cells) turned out to be 90.4%. Besides, the inhibition in the series on Leishmania stood at 12.2%.
For `CC[C@H](CO)Nc1nc(NCc2cccc(C)c2O)c2ncn(C(C)C)c2n1`, the IC50 was 19.8 µM in the series on Leishmania major, 12.4 µM in the series on Leishmania donovani, 1.65 µM in series [2] and 23 µM in series [3]. For the same compound, the viability at 72 h, 30 µM in series [1] (BJ cells) was determined as 82.9%. Further, in the series with Leishmania, the inhibition worked out at 3.3%.
For `COc1cccc(CNc2nc(N[C@H]3CC[C@H](N)CC3)nc3c2ncn3C(C)C)c1O`, in series [1] (BJ cells), the viability at 72 h, 30 µM was determined as 87.9%. The compound further returned an inhibition in the series on Leishmania of 10.8%.
With `CC[C@H](CO)Nc1nc(NCc2ccccc2)c2ncn(C(C)C)c2n1` [SELICICLIB], the viability at 72 h, 30 µM in series [1] (BJ cells) came out at 106%. Moreover, the inhibition in the series on Leishmania amounted to 38.6%.
As for `CC[C@H](CO)Nc1nc(NCc2ccc(O)cc2)c2ncn(C(C)C)c2n1`, the viability at 72 h, 30 µM in series [1] (BJ cells) stood at 91.6%. The compound further displayed an inhibition in the series with Leishmania of 21.3%.
With `CC[C@H](CO)Nc1nc(NCc2cc(O)cc(O)c2)c2ncn(C(C)C)c2n1`, the viability at 72 h, 30 µM in series [1] (BJ cells) stood at 83.9%. This compound came in with an inhibition with Leishmania of 15.9%.
On the same counts, the results for `CC(C)n1cnc2c(NCc3ccccc3)nc(NC[C@H](O)CN)nc21` are 74.5% and 43.2%.
As for `CC(C)n1cnc2c(NCc3ccccc3)nc(NCCCN)nc21`, the viability at 72 h, 30 µM in series [1] (BJ cells) was 100%. This compound also had an inhibition in the series with Leishmania of 46.2%.
Regarding `CC(C)n1cnc2c(NCc3ccccc3O)nc(N3CCNCC3)nc21`, in series [1] (BJ cells), the viability at 72 h, 30 µM came out at 127%. The compound further had an inhibition with Leishmania of 55.6%.
As to `CC(C)n1cnc2c(NCc3ccccc3)nc(NCCCO)nc21` [BOHEMINE], the viability at 72 h, 30 µM in series [1] (bj) worked out at 120%. Besides, in the series on Leishmania, the inhibition is 49.2%.
With `CC(C)n1cnc2c(NCc3ccccc3O)nc(N[C@@H]3CCCC[C@H]3N)nc21`, the viability at 72 h, 30 µM in series [1] (BJ cells) amounted to 98.7%. The same compound showed an inhibition in the series on Leishmania of 29.4%.
For `CC(C)n1cnc2c(NCc3ccccc3)nc(NC[C@H](C)O)nc21`, the viability at 72 h, 30 µM in series [1] (BJ cells) turned out to be 94.7%. Further, the inhibition with Leishmania worked out at 53.9%.
On to `CC[C@H](CO)Nc1nc(NCc2cc(C)ccc2O)c2ncn(C(C)C)c2n1`, for which the IC50 was determined as 2.3 µM in the series with Leishmania major, 2.2 µM in the series on Leishmania donovani, 0.162 µM in series [2] and 11.8 µM in series [3]. Besides, the viability at 72 h, 30 µM in series [1] (BJ cells) was 70.4%. Further, the inhibition with Leishmania turned out to be 0.4%.
On to `CC[C@H](CO)Nc1nc(NCc2cccc(OC)c2O)c2ncn(C(C)C)c2n1`, for which the IC50 in the series with Leishmania major was determined as 98.5 µM; in the series with Leishmania donovani, 95.9 µM; in series [2] it was 0.641 µM; in series [3], 35.4 µM. The viability at 72 h, 30 µM in series [1] (BJ cells) was 89%. Moreover, the inhibition in the series with Leishmania was found to be 2%.
Turning to `CC(C)n1cnc2c(NCc3ccccc3O)nc(N3CCN(CC#N)CC3)nc21`, in series [1] (BJ cells), the viability at 72 h, 30 µM amounted to 91.8%. Also, the inhibition with Leishmania amounted to 71.7%.
Consider `CC(C)n1cnc2c(NCc3ccc(O)cc3)nc(NCCCO)nc21`, for which the viability at 72 h, 30 µM in series [1] (BJ cells) was 84.9%. In the series on Leishmania, this compound had an inhibition of 53.3%.
The like results for `CC(C)n1cnc2c(NCc3ccccc3)nc(N(CCO)CCO)nc21` were, in that order, 133% and 47.1%.
On to `CC[C@H](CO)Nc1nc(NCc2ccc(OC)cc2O)c2ncn(C(C)C)c2n1`, for which the viability at 72 h, 30 µM in series [1] (BJ cells) is 82.3%. The compound further had an inhibition in the series with Leishmania of 53.1%.
With `CC[C@H](CO)Nc1nc(Nc2ccc(S(N)(=O)=O)cc2)c2ncn(C(C)C)c2n1`, the IC50 is 0.214 µM in series [2] and over 50 µM in series [3]. Further, the viability at 72 h, 30 µM in series [1] (BJ cells) was 76.7%. This compound also came in with an inhibition in the series on Leishmania of 2.2%.
With `CC(C)n1cnc2c(NCc3ccccc3O)nc(NCc3ccccc3O)nc21`, in series [1] (BJ cells), the viability at 72 h, 30 µM turned out to be 97.5%. In the series with Leishmania, this compound showed an inhibition of 37.8%.
For the compound `CCOC(=O)c1ccc(Nc2nc(N[C@H](CC)CO)nc3c2ncn3C(C)C)cc1`, the viability at 72 h, 30 µM in series [1] (BJ cells) was determined as 70.1%. In the series with Leishmania, this compound came in with an inhibition of 5.6%.
The like results for `CC(C)n1cnc2c(NCc3ccccc3)nc(NCCOCCO)nc21` were, in that order, 69.9% and 56.5%.
As for `CC[C@H](CO)Nc1nc(NCc2ccccc2N)c2ncn(C(C)C)c2n1`, the viability at 72 h, 30 µM in series [1] (BJ cells) stood at 95.7%. This compound yielded an inhibition with Leishmania of 9.8%.
For the compound `COc1cccc(CNc2nc(N[C@@H]3CCCC[C@H]3N)nc3c2ncn3C(C)C)c1O`, in series [1] (BJ cells), the viability at 72 h, 30 µM came out at 87.4%. Moreover, the inhibition in the series on Leishmania worked out at 33.6%.
On the same counts, the results for `CC[C@H](CO)Nc1nc(Nc2ccc(S(=O)(=O)Nc3nc(C)cc(C)n3)cc2)c2ncn(C(C)C)c2n1` are 105% and 1.2%.
In the case of `CC[C@H](CO)Nc1nc(NCc2cc(O)ccc2O)c2ncn(C(C)C)c2n1`, the IC50 is 0.384 µM in series [2] and over 50 µM in series [3]. Moreover, the viability at 72 h, 30 µM in series [1] (BJ cells) is 97.7%. The inhibition with Leishmania was found to be 1.5%.
Consider `CC(C)n1cnc2c(NCc3ccccc3O)nc(NCCCO)nc21`, for which the viability at 72 h, 30 µM in series [1] (BJ cells) came to 85%. In the series on Leishmania, the inhibition amounted to 10.5%.
With `CC[C@H](CO)Nc1nc(NCc2ccccc2O)c2ncn(C(C)C)c2n1` [OLOMOUCINE II], the concentration for half-maximal inhibition (IC50) with Leishmania major was found to be 47.2 µM; with Leishmania donovani, 62.4 µM; in series [2] it was 0.59 µM; in series [3], 11.9 µM. In series [1] (BJ cells), the viability at 72 h, 30 µM turned out to be 79.8%. The compound further displayed an inhibition in the series on Leishmania of 1.8%.
Turning to `CC[C@H](CO)Nc1nc(NCc2cccc(O)c2)c2ncn(C(C)C)c2n1`, in series [1] (BJ cells), the viability at 72 h, 30 µM came out at 85.6%. This compound also registered an inhibition with Leishmania of 36.4%.
With `CC[C@H](CO)Nc1nc(NCc2cc(OC)c(O)c(OC)c2)c2ncn(C(C)C)c2n1`, in series [1] (BJ cells), the viability at 72 h, 30 µM was found to be 103%. For the same compound, the inhibition in the series with Leishmania turned out to be 8.3%.
For the compound `CC(C)n1cnc2c(NCc3cccc(O)c3)nc(NCCCO)nc21`, the viability at 72 h, 30 µM in series [1] (BJ cells) was found to be 74.6%. This compound showed an inhibition in the series with Leishmania of 64.6%.
`CC(C)n1cnc2c(NCc3ccccc3)nc(N)nc21`: in series [1] (BJ cells), the viability at 72 h, 30 µM stood at 72.2%. In the series with Leishmania, the inhibition amounted to 87.1%.
With `CC[C@H](CO)Nc1nc(NCc2ccc(Br)cc2)c2ncn(C(C)C)c2n1`, the 50% inhibitory concentration (IC50) in the series with Leishmania major came out at 19.4 µM; in the series on Leishmania donovani it was 16.8 µM; in series [3] it was 20.1 µM. In addition, the viability at 72 h, 30 µM in series [1] (BJ cells) was 92.3%. This compound also yielded an inhibition in the series on Leishmania of 10%.
As to `CC[C@H](CO)Nc1nc(NC(CO)c2ccccc2)c2ncn(C(C)C)c2n1` (stereo not given in full), in series [1] (BJ cells), the viability at 72 h, 30 µM is 102%. The compound further displayed an inhibition with Leishmania of 33.5%.
